# Assay results published in patent publication EP1347751B1, “METHODS OF TREATING BONE CANCER AND THE PAIN ASSOCIATED THEREWITH USING ENDOTHELIN ANTAGONISTS” (ABBOTT LABORATORIES, priority 2000, dated 2002).
# Key:
# Interleukin-6 = Interleukin-6 levels in serum of treated subjects (sandwich immunoassay); assay type: in vivo, human; conditions: men with hormone refractory prostate cancer, 2.5 mg or 10 mg vs placebo, AUC, Figure 1
# Experimental: (§1) Studies were performed on male subjects with asymptomatic hormone refractory prostate cancer with rising PSA levels and on male subjects with symptomatic hormone refractory prostate cancer with rising PSA levels and pain. Subjects in the phase II studies had castrate levels of testosterone, either due to pharmacologic intervention, via leuprolide (Lupron®) or goserelin (Zoladex®), or via surgical castration. Subjects received ABT-627 or placebo. The following tests were conducted: • ABT-627 was formulated in 2.5 and 10 mg doses. An oral liquid formulation of ABT-627 was also prepared as follows: 1 mg/ml ABT-627, 50% glycerin, 14% alcohol, and water. Matching placebos were also provided.
# (§2) A number of recognized or putative biochemical markers of disease progression have been used to monitor treatment of individuals with prostate cancer. […]
# The effect of ABT-627 adminstration on Interleukin-6 levels in human serum samples was determined at Quintiles Laboratories using a sandwich immunoassay. […] After incubation, the wells were washed, and the bound enzymatic activity was measured using a chromogenic substrate. […]
# [1] = system: carboxyterminal cross-linked telopeptide of type I collagen (ICTP); assay: Crosslinked N-telopeptide levels in treated subjects (DiaSorin ICTP radioimmunoassay); assay type: in vivo; conditions: men with hormone refractory prostate cancer; human serum; 10 mg vs placebo; AUC, Figure 4
# Experimental: as §1
# (§3) Markers of osteoblastic activity were assessed using urine samples. Bone markers include bone alkaline phosphatase (BAP), deoxypridinoline, and N-telopeptide of Type I collagen. Blood samples were collected prior to dosing on Day 1, Day 42, Day 84, Day 168, and every 28 days after Day 168, with a final collection on the last day of the study.
# Cross-linked N-telopeptide levels were determined using the DiaSorin (Stillwater, MN) assay for the quantitative determination of carboxyterminal cross-linked telopeptide of type I collagen (ICTP) in human serum by equilibrium radioimmunoassay (RIA). […] The bound tracer in the pellet was counted with a gamma counter. […]
# [2] = Visual Analog Scale (VAS) pain assessment in treated subjects; assay type: in vivo, human; conditions: men with symptomatic hormone refractory prostate cancer; 2.5 mg or 10 mg vs placebo; independent of the effects of morphine; AUC, Figure 3
# Experimental: as §1, with “provided. […]” for “provided.”
# During the course of the study, pain asessments were done daily, at bedtime, by the subject. […] The log also contained a table on which was recorded all daily pain medication consumed by the patient. […] Clinical personnel who received the logs measured the score by measuring the distance (in mm) from the "no pain" end mark to the point where the subject's line crossed the VAS line. […]
# The weekly VAS scores were calculated excluding the lowest and highest score for each week and averaging the remaining five scores. […]
# [3] = system: prostate specific antigen (PSA); assay: Prostate Specific Antigen level assay (Chiron ACS: Centaur PSA2 sandwich immunoassay) in serum of treated subjects; assay type: in vivo, human; conditions: men with hormone refractory prostate cancer; oral 2.5 mg or 10 mg vs placebo; AUC, Figure 2
# Experimental: as §1, §2
# The effect of ABT-627 administration on prostate specific antigen (PSA) levels in human subject serum samples was determined using the procedure described in the Chiron Diagnostics ACS: Centaur PSA2 Assay. […]
# Briefly, a subject population was treated with a placebo or 2.5 mg or 10 mg of ABT-627. […] A direct relationship exists between the amount of PSA present in the patient sample and the RLU's (relative light units) detected.
# Chromagranin-A = Chromagranin-A levels in serum of treated subjects (two site chemiluminescence assay, ICMA); assay type: in vivo, human; conditions: men with hormone refractory prostate cancer, 2.5 mg/day, AUC, Figure 8
# Experimental: as §1, §2
# The effect of ABT-627 adminstration on Chromagranin-A levels in human serum samples was determined by proprietary assay conducted at the Nichols Institute. […] The bound, acridinium-labeled material produces light that is detected in a luminometer after addition of triggering agents. […]
# [4] = Bone scan (Tc-99m phosphonate, bone scan index) in treated subjects; assay type: in vivo, human; conditions: men with hormone refractory prostate cancer; bone scans; 10 mg versus placebo; Figure 6
# Experimental: as §1
# Bone scans were performed with an NDA approved, Tc-99m phosphonate type radiopharmaceutical. This technique uses whole body format (skull to feet) so that anterior and posterior images are presented when using a 510 K-approved gamma camera. […] Each site was evaluated against a confidence score of 1 to 5, where 1 is negative, 2 is probably negative, 3 is equivocal, 4 is probably positive, and 5 is definitely positive. […] In addition, in a blinded study, a reference nuclear medicine physician interpreted the bone scans quantitatively as follows: the percent of involved bone was estimated for each individual bone, and the individual bone involvement was summed to calculate a global percent bone scan index (BSI). […]
# Acid Phosphatase (ACP) = assay: Acid Phosphatase levels in serum of treated subjects (Sigma Diagnostics ACP Procedure No. 435); assay type: in vivo, human; conditions: men with hormone refractory prostate cancer, treated vs placebo, AUC, Figure 7
# Experimental: as §1, with “provided. […]” for “provided.”
# The effect of ABT-627 administration on Acid Phosphatase levels in human subject serum samples was determined at Quintiles Laboratories using the chemical test described in Sigma Diagnostics Acid Phosphatase (ACP) Procedure No. 435. […] The alpha-naphthol immediately reacts with fast red TR salt to produce a yellow chromophore with an absorbance maximum at 405 nm. The rate of increase in absorbance at 405 nm is directly proportional to ACP activity in the sample. ACP activity was determined in the presence and absence of L-tartrate, the difference being attributed to prostatic acid phosphatase activity. […]
# [5] = system: bone alkaline phosphatase (BAP); assay: Bone Alkaline Phosphatase levels in treated subjects (Alkphase-B assay); assay type: in vivo, human; conditions: men with hormone refractory prostate cancer; 10 mg vs placebo; AUC, Figure 5
# Experimental: as §1, §3
# Bone Alkaline Phosphatase levels were determined using the bone-specific Alkphase-B® assay published by Metra Biosystems (Mountain View, CA).
structure (smiles),measurement,setting,value
CCCCN(CCCC)C(=O)CN1C[C@H](c2ccc3c(c2)OCO3)[C@@H](C(=O)O)[C@@H]1c1ccc(OC)cc1 [ABT-627],average change in baseline for Interleukin-6,Interleukin-6,lower
same,Crosslinked N-telopeptide levels,[1],decreased
same,VAS scores (pain),[2],decrease in pain
same,rate of increase of PSA in the serum samples,[3],decreases
same,average change from baseline for Chromagranin-A,Chromagranin-A,higher
same,proportion of total skeketal involvement,[4],decrease in the proportion of total skeketal involvement
same,average change from baseline for acid phosphatase,Acid Phosphatase (ACP),decreased
same,rate of increase for acid phosphatase,Acid Phosphatase (ACP),decreased
same,BAP levels,[5],decreased
